Columns and labels:
[1] = Iron binding (quenching of fluorescence) by fluorescein-transferrin preparations with and without oxalate and gallium; details: 0.6 μM indicator, 10 mM oxalate and gallium, FIGS. 8A-B
Protocol: FIGS. 8A–B graphically depict the ability of two particular preparations of iron-free-transferrin, essentially Fl-TF (FIG. 8A) and Fl-aTF (FIG. 8B), to detect free iron in the presence and absence of oxalate and Gallium [Ga(III)]. 0.6 μM of each of the indicator molecules were tested under three experimental conditions: with no addition (squares), with 10 mM Na-oxalate (circles) and with 10 mM Na-oxalate and 0.1 mM GaCl3 (triangles), Quenching of fluorescence as a function of iron concentration was measured and presented as % Original Fluorescence.
Preparation of fluorescein-conjugated apo-Transferrin (Fl-aTF) and iron depleted Transferrin (FL-TF)—100 μM 5-(4,6-dichlorotriazinyl) aminofluorescein (DCTAF, Molecular Probes, Eugene, Oreg.) from a freshly prepared 10 mM solution in dimethylsulfoxide was added to a solution containing 8 mg/ml apo-Transferrin (Kamada, Kibbutz Kama, Israel) (100 μM, based on a, MW of 80 kD) in 100 mM NaHCO3, pH 8.4. Following a 30 minute incubation at 37° C. in the dark, 5 mM L-lysine was added from a solution containing 0.5 M L-lysine, pH 8, in order to terminate the coupling reaction. The product Fl-aTF was extensively dialyzed against HBS, divided into aliquots and stored frozen at −20° C. The final preparation yielded a single fluorescent band of approximately 80 kD in polyacrylamide electrophoresis determinations. The fluoroscein concentration in Fl-aTF was determined to be 84 μM by measuring absorbance at 496 nm, using DCTAF as standard solution, giving a ratio of aTf: fluoroscein of 1:0.84.
FL-TF was prepared in an identical manner as FL-aTF, with the difference that iron-saturated human transferrin (from Kamada, Kibbutz Kama, Israel) was used instead of iron-free transferrin for reaction with DCTAF. The FL-TF was rendered iron-free by exhaustive dialysis against 37.5 mM Na-Citrate, pH 5.0, and then the citrate was removed from the preparation by exhaustive dialysis against HBS. […]

[2] = DCI in serum/plasma of Thalassemia patients undergoing oral L1-chelation therapy; format: in vivo, human; details: Thalassemia patients (Thailand, Israel), therapeutic oral doses of L1, minutes to hours after administration; FIGS. 6A-B
From the text: FIG. 5 is a schematic illustration of another embodiment of the method of the present invention directed at detecting iron mobilized from tissues into plasma by chelators such as L1 (also called deferriprone). In the example depicted, a serum sample was taken from a patient following L1 oral administration. The iron mobilized in vivo into the plasma by L1 is transferred to Fl-DFO in vitro, whereupon Fl-DFO's fluorescence is quenched commensurately with the amount of iron transferred. The basic assay is as depicted in FIG. 2. FIGS. 6A–B are graphs depicting the DCI levels in plasma of thalassemic patients (3 from Israel and 3 from Thailand, FIGS. 6B and A, respectively) treated with therapeutic doses of L1 (per os). Sampled were retrieved minutes to hours following L1 administration. […] When assessed under actual clinical conditions, with serum samples from Thalassemia patients (each patient is represented by a line in the graph) undergoing L1-chelation therapy in Thailand (FIG. 6A) and Israel (FIG. 6B), the methods of the present invention accurately reflected the L1-bound iron in the patient's plasma. DCI was detected in the samples assayed as described hereinabove (Example 2), and DCI values determined from the standard calibration curve (FIG. 4). […]

Compound: 5-4,6-dichlorotriazinyl aminofluorescein (DCTF)-apo-transferrin [Fl-aTF]
- quenching of fluorescence by iron in the presence of gallium ([1]; listed as FL-aTF): strongly quenched by low concentrations of iron in the presence of gallium
- quenching of fluorescence by iron in the presence of gallium ([1]; listed as Fl-aTf): not affected by Gallium

Compound: Cc1c(O)c(=O)ccn1C [L1]
- DCI in patient plasma after L1 administration [2]: increases in DCI

Compound: Fl-TF: fluorescein attached to iron-saturated human transferrin, then rendered iron-free; similar to conventional fluoresceinated Transferrin
- quenching of fluorescence by iron in the presence of gallium [1]: inhibition of Fl-TF fluorescence quenching by gallium was clearly observed
